Data published in patent US20190117770A1, “USES OF IMMUNOCONJUGATES TARGETING CD138” (Biotest AG, priority 2011, published 2019).
Several values for one entry are separate records, joined by “and”; a condition that tells them apart may be missing. Identical values can stand only once. Entries after “also recorded” stand apart in the source; their conditions may differ. Like-named read-outs stand apart in the source and are kept apart here.

Key:
[1] = test system: Jurkat; assay: Sensitivity of cell lines towards BT062; assay type: cell-based; conditions: T cell lymphoma
[2] = test system: relapsed/refractory multiple myeloma; assay: Human trial, repeated multiple dose regimen (days 1, 8, 15)
Source text: This includes, e.g., in alternating 2 and 3 day intervals, in 4 day intervals, in progressive increasing intervals such as on day 1, 3, 6, 10, 15. […] Such a treatment cycle, including a resting period, is also referred to herein as “full” or “complete” treatment cycle. A treatment free period describes the time during which no treatment is given. Thus, in the above example, the treatment free period would start at day 16. At the beginning of the resting period, no immunoconjugate is administered to the patient.
Generally, all toxicities of at least grade 3 are defined as DLT. Further study specific DLT criteria which can be employed are listed below: Nonhematological: • Alopecia, of any grade, is not considered a DLT • Grade 3-4 nausea and vomiting lasting longer than 3 days despite optimal antiemetic medication.^a • Grade 3-4 diarrhea lasting longer than 3 days despite optimal antidiarrheal medication.^a a. Optimal antidiarrheal and antiemetic treatment were determined by each investigator.
These DLTs may occur in a first or a subsequent treatment cycle. […] Preferably DLTs in the first cycle are considered.
(§1) Initially, the response to treatment was evaluated at day 1 of treatment cycles 1-3 by M-protein quantification using immunoelectrophoresis (IEP) and immunofixation electrophoresis (IFE) from serum and 24-hour urine collection. […] A general quantitative immunoglobulin assessment was done together with M-protein quantification.
(§2) Serum samples were used to perform FLC assays to examine multiple myeloma subjects with no detectable M-protein (nonsecretory/oligosecretory myeloma) and to allow for detection of early response to treatment. Therefore serum FLC assays were performed on day 1, 2, 3, and 8 of treatment cycle 1, on day 2, 3, 8 and 15 of cycle 4, as well as on day 1, 8 and 15 of all other treatment cycles. M-protein and FLC were be analyzed at the screening and at the close-out visit. Evaluations at day 1 of cycle 1 served as baseline values.

[3] = test system: relapsed or relapsed refractory multiple myeloma
Experimental: as §1, §2

[4] = test system: OPM-2 cells; assay: FACS analysis of binding; assay type: cell-based; conditions: FIG. 6
Source text: OPM-2 cells are plasma cell leukaemia cell lines showing highly expressing CD138. […] The cells were washed and CD138-bound antibody or conjugates were detected using a fluorescence-labelled secondary antibody in FACS analysis. The mean fluorescence measured in these experiments was plotted against the antibody concentration.

[5] = test system: CD138+ MOLP-8 cells; assay: WST cell viability assay; assay type: cell-based
Experimental: CD138^+ MOLP-8 cells were seeded in flat bottom plates at 3000 cells/well. CD138^− BJAB control cells were seeded at 1000 cells/well. WST reagent (water-soluble tetrazolium salt, ROCHE) was added in order to measure cell viability according to the manufacturer's instruction (ROCHE). The reagent was incubated for 7.5 h on MOLP-8 cells and for 2 h on BJAB cells. The fraction of surviving cells was calculated based on the optical densities measured in a microplate reader using standard procedures.

[6] = test system: pancreatic tumor tissue PAXF 736; assay: Pancreas carcinoma xenograft; assay type: in vivo, NMRI mice; conditions: for T/C (%): day 52
Experimental: (§3) These tumors display similar characteristics as the patient tumors, since they are passaged in mice at low numbers, to retain original characteristics.
Tumor diameters have been measured two times a week. Tumor volumes were calculated according to the formula axbxb/2 where “a” is the longest axis and “b” the perpendicular axis thereto.
Tumor inhibition for a particular day (T/C in %) was calculated from the ratio of the median RTV (relative tumor volume) values of test versus control groups multiplied by 100%.

[7] = test system: primary mammary tumor of a patient; assay: Mammary carcinoma xenograft; assay type: in vivo, NMRI (nude) mice; conditions: for T/C: day 21
[8] = test system: metastatic patient tissues derived from a bladder tumor; assay: Metastatic bladder tumor xenograft; assay type: in vivo, NMRI (nude) mice; conditions: both dose groups (4 mg/kg and 23.85 mg/kg once per week)
Source text: as §3
To investigate metastatic tumors, NMRI (nude) mice were implanted with a metastatic patient tissues derived from a bladder tumor (determined via IHC analysis as CD138 strong positive).

[9] = test system: human derived breast cancer model with CD138 IHC score 1-2; assay: Breast cancer model, CD138 IHC score 1-2; assay type: in vivo, NMRI nude mice; conditions: 1-4 mg/kg once weekly (FIG. 37)
Source text: No difference in the treatment regimens was observed. The results are shown in terms of the effect on the mean relative tumor volume in the model relative to an intravenous administration of PBS. For the calculation of the median relative tumor volume on day, see FIG. 33.

[10] = test system: MOLP 8 human myeloma cells
Source text: Female SCID mice were subcutaneously inoculated with MOLP 8 human myeloma cells. […] A control group of animals received phosphate buffered saline (PBS) using the same schedule and route of administration. Tumor growth was monitored by measuring tumor size and calculated with the formula length×width×height×1/2, determined on days 10, 14, 18 and 21.
FTV: Fractional tumor volume=mean tumor volume (test)/mean tumor volume (control)

[11] = repeated single doses of 160 mg/m^2 (FIG. 28)

BT062
IC50 [1]: 39 nM
DLTs ([2]; 40 mg/m^2 weekly, 14 administrations): no DLTs
response ([2]; 80 mg/m^2 weekly, Patient 12): partial response
progression free survival ([2]; 100 mg/m^2 weekly, patient 15 (FIG. 23)): more than 3 months
response ([2]; 120 mg/m^2 weekly, patient 19 (FIG. 24)): unconfirmed minor response
patients displaying DLT ([2]; 140 mg/m^2 weekly): 1 out of 6
patients displaying DLTs ([2]; 160 mg/m^2 weekly): two out of the four and 2 out of 4
response ([2]; 160 mg/m^2 weekly, patient 31): minor response
M-protein decrease ([2]; 160 mg/m^2 weekly, patient 31 (FIG. 25)): more than 25%
disease status ([2]; 3 × 50 mg/m^2, over six cycles (Patient 6)): no disease progression; also recorded: At least stable disease could be achieved
serum FLC level ([2]; 3 × 65 mg/m^2, after a single treatment cycle (FIG. 21)): A strong decrease of the serum FLC level
Tolerability ([2]; 3 × 80 mg/m^2, aggregate 240 mg/m^2 in three weeks): well tolerated
reduction of urine M protein ([2]; 3 × 120 mg/m^2, after 3rd, 7th and 10th cycle): 50% achieved after 3rd, 7th and 10th cycle
patients with progression free survival of at least 168 days ([2]; FIG. 18): four
patients with progression free survival of at least 300 days ([2]; FIG. 18): two
treatment without disease progression ([2]; Patient 8 (FIG. 21)): 168 days
patients (out of 32) with progression free survival of at least 3 months ([2]; all dose levels (FIG. 18)): 14
DLT (palmar-plantar erythrodysaethesia syndrome), patients ([2]; at 420 (3 × 140 mg/m^2), out of six): toxicities (up to now), one
MAD ([2]; days 1, 8, 15): 160 mg/m^2
DLTs ([2]; three 21 day cycles of 3×100 mg/m^2): No DLTs
DLTs ([2]; three 21 day cycles of 3×120 mg/m^2): No DLTs
treatment cycles of 21 days without disease progression ([3]; 20 mg/m^2, one patient): 10 cycles and Diseases progression after Cycle 10 cycles
response (urine M-protein criteria) ([3]; 20 mg/m^2, after 8th treatment): M-Protein criteria for Minor Response reached after 8th
Serum M-Protein ([3]; 40 mg/m^2, after 1st treatment): Serum M-Protein decreased after 1st treatment and stabilized
response (FLC criteria) ([3]; 160 mg/m^2, after 2nd, 3rd and 4th administration (FIG. 26)): partial response; also recorded: FLC criteria for Partial Response were reached very early
FLC levels reduced vs baseline ([3]; 160 mg/m^2, after 2nd, 3rd and 4th treatment): > 50%
FLC levels reduced vs baseline ([3]; 160 mg/m^2, during 1st cycle): ~40%
toxicity in the mucosa ([3]; 200 mg/m^2 dose group): DLTs
patients out of 32 with diminished disease progression (at least a fourth treatment cycle) ([3]; all dose levels): At least 12
MTD ([3]; human, in vivo): 160 mg/m^2
decrease of urine M-protein ([3]; repeated single dosages, e.g. 20, 40, 80 and 120 mg/m^2): more than 50%
MAD ([3]; repeated single dose): 200 mg/m^2
toxicity towards non-cancer cells expressing CD138 ([3]; repeated single dose up to 120 mg/m^2): no dose limiting toxicity
eye toxicity ([3]; repeated single dose, not qualifying for DLT): Serious adverse events
M-protein levels reduced by [3, 11]: 25%
progression free survival [3, 11]: about 22 months
Tolerability ([3]; single dose every three weeks, 200 mg/m^2): DLTs
dose limiting toxicity (DLT) dose ([3]; single dose once in 21 day cycle): 200 mg/m^2
binding characteristics [4]: very similar binding characteristics
cytotoxicity after preincubation with molar excess of unconjugated nBT062 ([5]; FIG. 7 (D)): substantially blocked
cytotoxic activity ([5]; five days, FIG. 7): very similar
complete remission obtained, days after tumor implantation ([6]; 13.25 mg/kg): 35 days
mice alive after 52 days ([6]; 13.25 mg/kg): 8/8
T/C (%) ([6]; 13.25 mg/kg once weekly): 0.0%
complete remission obtained, days after tumor implantation ([6]; 23.85 mg/kg): 28 days
T/C (%) ([6]; 23.85 mg/kg once weekly): 0.0%
tumor regrowth in treatment free observation phase ([6]; both treatment groups): no tumor regrowth
side effects ([6]; mouse, in vivo): No side effects
mice with complete remission without tumor regrowth ([7]; 1 mg/kg once weekly): 3/7
mice with partial remission ([7]; 1 mg/kg once weekly): 2/7
tumor response ([7]; 1 mg/kg once weekly): tumor stasis
T/C ([7]; 13.25 mg/kg/4 mg/kg): 0.0
T/C ([7]; 23.85 mg/kg): 0.0
tumor response ([7]; 4 and 2 mg/kg once weekly (FIG. 35)): complete remission
tumor regrowth in treatment free observation period ([7]; 39 days after the last administration): no tumor regrowth
complete remission achieved after ([7]; FIG. 9): 21 days
T/C value ([7]; both treatment groups): below 10%
influence on body weight after each injection ([7]; mouse, in vivo): no influence on body weight
tumor response [8]: Complete remission
tumor response [9]: did not respond
Regressions Complete ([10]; BT062 100 ug/kg): 0/6
Regressions Partial ([10]; BT062 100 ug/kg): 0/6
Result ([10]; BT062 100 ug/kg): Active
T/C (%) (DAY 17) ([10]; BT062 100 ug/kg): 35%
Tumor free survivors day 77 ([10]; BT062 100 ug/kg): 0/6
Regressions Complete ([10]; BT062 200 ug/kg): 0/6
Regressions Partial ([10]; BT062 200 ug/kg): 0/6
Result ([10]; BT062 200 ug/kg): Active
T/C (%) (DAY 17) ([10]; BT062 200 ug/kg): 14%
Tumor free survivors day 77 ([10]; BT062 200 ug/kg): 0/6
Regressions Complete ([10]; BT062 400 ug/kg): 1/6
Regressions Partial ([10]; BT062 400 ug/kg): 4/6
Result ([10]; BT062 400 ug/kg): highly active (A Log10 cell kill of higher than 2.8)
T/C (%) (DAY 17) ([10]; BT062 400 ug/kg): 9%
Tumor free survivors day 77 ([10]; BT062 400 ug/kg): 0/6
